From patent publication US20060148796A1, “6-Substituted imidazopyrazines” (priority 2003, published 2006)

test system: not given; assay: not given; settings: not given

| SMILES | melting point [°C] |
| --- | --- |
| CCc1cccc(C)c1CNc1nc(C(=O)O)cn2c(C)c(C)nc12 [Example 6, 8-(2-Ethyl-6-methyl-benzylamino)-2,3-dimethyl-imidazo[1,2-a]pyrazine-6-carboxylic acid] | 230 |
| CCc1cccc(C)c1CNc1nc(Br)cn2c(C)c(C)nc12.O=C(O)C(=O)O [Example 3, 6-Bromo-8(2-ethyl-6-methyl-benzylamino)-2,3-dimethyl-imidazo[1,2-a]pyrazine oxalate] | 163 |
| CCOC(=O)c1cn2c(C)c(C)nc2c(NCc2c(C)cccc2CC)n1 [Example 4, Ethyl 8-(2-ethyl-6-methyl-benzylamino)-2,3-dimethyl-imidazo[1,2-a]pyrazine-6-carboxylate] | 144 |

Second part, the compound after the results:

| melting point [°C] | SMILES |
| --- | --- |
| 197 | CCc1cccc(C)c1CNc1nc(C(=O)N2CCCC2)cn2c(C)c(C)nc12 [Example 7, 8-(2-Ethyl-6-methyl-benzylamino)-6-(pyrrolidinocarbonyl)-2,3-dimethyl-imidazo[1,2-a]pyrazine] |
| 166 | CCc1cccc(C)c1CNc1nc(CO)cn2c(C)c(C)nc12 [Example 12, 8-(2-Ethyl-6-methyl-benzylamino)-6-(hydroxymethyl)-2,3-dimethyl-imidazo[1,2-a]pyrazine] |
| 177 | CCc1cccc(C)c1CNc1nc(COC)cn2c(C)c(C)nc12.Cl [Example 13, 8-(2-Ethyl-6-methyl-benzylamino)-6-(methoxymethyl)-2,3-dimethyl-imidazo[1,2-a]pyrazine hydrochloride] |

test system: pentagastrin-stimulated acid secretion of the perfused rat stomach; assay: Secretion-inhibiting action on the perfused rat stomach (pentagastrin-stimulated acid secretion, intraduodenal administration in vivo); settings: dose 1 μmol/kg i.d., perfused stomach of anesthetized CD rat, female
From the text: Testing of the Secretion-Inhibiting Action on the Perfused Rat Stomach
In Table A which follows, the influence of the compounds according to the invention on the pentagastrin-stimulated add secretion of the perfused rat stomach after intraduodenal administration in vivo is shown.
The abdomen of anesthetized rats (CD rat, female, 200-250 g; 1.5 g/kg Im. urethane) was opened after tracheotomy by a median upper abdominal incision and a PVC catheter was fixed transorally in the esophagus and another via the pylorus such that the ends of the tubes just projected into the gastric lumen. The catheter leading from the pylorus led outward into the right abdominal wall through a side opening.
After thorough rinsing (about 50-100 ml), warm (37° C.) physiological NaCl solution was continuously passed through the stomach (0.5 ml/min, pH 6.8-6.9; Braun-Unita I). The pH (pH meter 632, glass electrode EA 147; φ=5 mm, Metrohm) and, by titration with a freshly prepared 0.01N NaOH solution to pH 7 (Dosimat 665 Metrohm), the secreted HCl were determined in the effluent in each case collected at an interval of 15 minutes.
The gastric secretion was stimulated by continuous infusion of […] (=1.65 ml/h) of i.v. pentagastrin (left femoral vein) about 30 min after the end of the operation (.e. after determination of 2 preliminary fractions). […]

| SMILES | Inhibition of acid secretion (%) |
| --- | --- |
| CCc1cccc(C)c1CNc1nc(C(=O)N(C)C)cn2c(C)c(C)nc12 [Example 5, 6-(Dimethylaminocarbonyl)-8-(2-ethyl-6-methyl-benzylamino)-2,3-dimethyl-imidazo[1,2a]-pyrazine] | 49 |
| CCc1cccc(C)c1CNc1nc(COC)cn2c(C)c(C)nc12.Cl [Example 13, 8-(2-Ethyl-6-methyl-benzylamino)-6-(methoxymethyl)-2,3-dimethyl-imidazo[1,2-a]pyrazine hydrochloride] | 46 |
